The experiment concerns Plasmodium falciparum. Description: GSK_TCMDC: Inhibition of Plasmodium falciparum 3D7 in whole erythrocytes, using parasite LDH activity as an index of growth. Format: functional, organism-based. To be noted: Plasmodium falciparum, 3D7.

Compound `CC(C)C[C@H](NC(=O)c1cc2ccccc2s1)C(=O)N[C@H]1CCN(Cc2ccc(OC[C@@H]3CCCN3C)c(Cl)c2)C1` displayed an XC50 of 853 nM. Next, `CCOc1ccccc1CNc1nccc(NCCc2cn(C)c3ccccc23)n1`: 1260 nM; `Fc1ccc(NC(S)=NN=Cc2ccccn2)cc1`: 775 nM; `CCc1ccc(-n2cc(C(=O)c3cc(Br)ccc3O)cc(C#N)c2=O)cc1`: 797 nM. Next, `c1cc2[nH]c(CCCc3nc4cc(C5=N[C@H]6CCCC[C@H]6N5)ccc4[nH]3)nc2cc1C1=N[C@@H]2CCCC[C@@H]2N1`: 1240 nM.

In the case of `CC(=O)N(Cc1ccc(-c2ccc(CNCCc3ccccc3)cc2)cc1)C1CCN(Cc2ccccc2)CC1`, the XC50 was determined as 939 nM. The value for `CNC(=O)C(C)N(c1ccc(Cl)cc1)c1nc(C(C)(C)C)cs1` (stereo not given) was 741 nM; that for `Cc1c(C)c2c(c(C)c1O)CC[C@@](C)(C(=O)NC1CCC(CN3CCC(c4c[nH]c5ccccc45)CC3)CC1)O2` (stereo not given in full) was 965 nM. The value for `N#Cc1ccc2c(c1)CCN(CCC1CCC(NC(=O)c3cc4ccccc4[nH]3)CC1)CC2` (stereo not given) was 1010 nM. The value for `CCN1CCC(N(Cc2ccc(-c3ccc(Cl)cc3)cc2)C(=O)Cn2c(CCc3cccc(F)c3F)cc(=O)c3ccccc32)CC1` was 703 nM; that for `CC(C)c1ccc(NC(=O)NCC2CCCN(CCCCCNC(=O)/C=C/c3ccc(Cl)c(Cl)c3)C2)cc1` (stereo not given) was 806 nM. The compound `NC1CCN(c2nc(NCCCc3ccc(O)cc3)nc(NCc3ccccc3-c3ccc(C(F)(F)F)cc3)n2)CC1` had an XC50 of 727 nM. Turning to `COc1cccc(Nc2nc(C)cc(Nc3cccc(C#N)c3)n2)c1`, the XC50 was found to be 1080 nM. The value for `COc1ccc2nccc(N/N=C/c3ccccc3[N+](=O)[O-])c2c1` was 65.9 nM; that for `CC(C)[C@H](NC(=O)c1ccc(O)c(-c2ccc(Cl)c(Cl)c2)c1)C(=O)NC1CCCCCC1` was 224 nM; that for `CCNC(=O)Nc1ccc(N(C)c2ccnc(NC3CC3)n2)cc1` was 803 nM. The value for `COc1ccc2nccc([C@@H](O)CN3CCC(NC(=O)/C=C/c4ccc5[nH]c(=O)ccc5c4)CC3)c2c1` was 967 nM; that for `O=C(NCC1CCN(Cc2ccc(F)cc2)C1)c1cc(-c2cccc(C(F)(F)F)c2)cs1` (stereo not given) was 960 nM. Next, `CC(=O)Nc1ccc(OCCCCCOc2ccc(NC(C)=O)cc2Cl)c(Cl)c1`: 833 nM. `O=S(=O)(Nc1cccc(CCN2CCC(N3CCCCC3)CC2)c1)c1cccc(C(F)(F)F)c1` gave an XC50 of 976 nM. The value for `Cc1c(Cc2ccccc2Cl)cnc2nc(N)nc(N)c12` was 7.42 nM; that for `COc1ccc(-c2cnc3[nH]cc(-c4ccc(C(=O)O)c(C)c4)c3c2)cn1` was 311 nM. Next, `COc1ccc2nccc([C@@H](O)CN3CCC(NCc4nc5c([N+](=O)[O-])cccc5[nH]4)CC3)c2c1`: 705 nM; `CCCCCCCN1CCC(NC(=O)Nc2ccnc3ccc(OC)cc23)C(CO)C1` (stereo not given): 176 nM. Next, `CC(C)NC(=O)c1cccc(-c2cccc(OCCN3CCSCC3c3ccccc3)c2)c1` (stereo not given): 1010 nM; `CCCCNC(=O)[C@H](CC1CCCCC1)NC(=O)c1ccc(O)c(-c2ccc(OC)cc2)c1`: 920 nM. As to `CCNc1cc(C(=O)N[C@@H](Cc2ccccc2)[C@H](O)CNCc2ccc3c(c2)OCCO3)cc(N2CCCCS2(=O)=O)c1`, the XC50 came out at 1350 nM. The value for `CS(=O)(=O)Cc1ccc(Nc2nccc(-c3c(-c4cccc(NC(=O)c5c(F)cccc5F)c4)nn4ncccc34)n2)cc1` was 162 nM; that for `CCCOc1ccc(NC(=O)c2cccs2)cc1Cl` was 859 nM.

`COc1cc(C(C)C)ccc1C1CCN(CCCCNC(=O)c2ccc(NC(=O)c3ccc(Cl)cc3)cc2)CC1` registered an XC50 of 449 nM. The value for `CCOc1cc(C)ccc1C1CCN(CCN2CCC(CNC(=O)c3ccc(-c4ccc(C(F)(F)F)cc4)cc3)CC2)CC1` was 701 nM; that for `Cc1ccc(OCCCON2C(=N)N=C(N)NC2(C)C)cc1C` was 3.2 nM.

With `O=[N+]([O-])c1cccc(/C=N/Nc2ccnc3ccc(C(F)(F)F)cc23)c1`, the XC50 came out at 1090 nM. `CCOc1cc(C)c(C2CCN(CCCCNC(=O)c3ccc(NC(=O)c4ccc(Cl)cc4)cc3)CC2)cc1C` had an XC50 of 739 nM. With `O=C(Nc1ccccc1Cl)c1cc2ccccc2cc1O`, the XC50 was determined as 1010 nM. The value for `COc1cccc(CNC(=O)NC2CCN(c3ccnc(Nc4cc(OC)c(OC)c(OC)c4)n3)C2)c1` (stereo not given) was 713 nM.

Take `OCC1CCN(Cc2ccc(-c3ccc(-c4nc5cc(C(F)(F)F)ccc5[nH]4)cc3)cc2)CC1`: the XC50 turned out to be 697 nM. The value for `O=C(Nc1ccc(-c2cccc(-c3nc4cc(C(F)(F)F)ccc4[nH]3)c2)cc1)c1ccc(=O)[nH]n1` was 1070 nM; that for `COc1ccc(Cc2c(C)nc3nc(N)nc(N)c3c2C)cc1` was 284 nM. Next, `CCN(CC)CCN(Cc1ccc(-c2ccc(C(F)(F)F)cc2)cc1)C(=O)Cn1c(CCc2ccc(F)cc2)nc(=O)c2sccc21`: 670 nM.

For the compound `CN(C)CCCOc1ccc(CN2CC[C@H](NC(=O)c3ccc(Cl)c(Cl)c3)C2)cc1Cl`, the XC50 amounted to 957 nM. Compound `CCc1ccccc1N1CCN(CCCC(=O)c2ccc(NC(=O)c3ccc(Cl)cc3)cc2)CC1` registered an XC50 of 1310 nM. Next, `CN1CCN(CCCN(Cc2ccc(-c3cccc(CNCc4ccc5c(c4)OCO5)c3)cc2)C(=O)NC2CCCCC2)CC1`: 988 nM; `Cn1nccc1C(=O)NCCNCc1ccc(-c2ccc(-c3nc4cc(C(F)(F)F)ccc4[nH]3)s2)cc1`: 186 nM. The value for `C=CCc1cc(SC)ccc1Oc1ccc(N)cc1` was 742 nM; that for `CCn1c(-c2nonc2N)nc2c(C#CC(C)(C)O)ncc(OCCNCCc3ccc(OC)cc3)c21` was 957 nM; that for `CN(C)CCOc1ccc2c(c1)CN(C)CC2c1ccccc1` (stereo not given) was 1110 nM. The value for `Cc1cc(N)nc2ccc(-c3ccc(CCN)cc3)cc12` was 621 nM; that for `Oc1ccc(CN2CCC(NCc3cccc4ccccc34)CC2)cc1` was 1200 nM. `CCCCCCN1CCC(NCc2ccc(C)cc2)CC1` registered an XC50 of 860 nM.

For the compound `COc1cccc(OC2CCN(C(=O)c3cc(C(C)(C)C)nn3Cc3ccccc3)CC2)c1`, the XC50 amounted to 254 nM. Next, `CCc1c(C)nc(-n2nc(C)cc2NC(=O)C2c3ccccc3Oc3ccccc32)[nH]c1=O`: 952 nM; `N#Cc1ccc(CNCCCCCCNCc2ccc(C#N)c3ccccc23)c2ccccc12`: 610 nM.

`COc1cc(Br)ccc1N1CCN(CCCCNC(=O)c2ccc(NC(=O)c3ccc(Cl)cc3)cc2)CC1`: the XC50 was 758 nM. The value for `O=C(c1cc2c(s1)-c1cccc(Cl)c1SC2)N1CCN(c2ccncc2)CC1` was 1010 nM; that for `O=C(CC(c1ccccc1)c1ccccc1O)N1CCOCC1` (stereo not given) was 1520 nM; that for `COc1ccc(-c2ccc(NC(=O)c3cccc(Cl)c3)cc2)cc1CNC(C)C` was 466 nM. Next, `Clc1ccc(Sc2cncnc2N2CCOCC2)cc1`: 40.2 nM; `COC(=O)c1ccc(OCC(C)NCC(O)c2cccc(C(F)(F)F)c2)cc1` (stereo not given): 838 nM. `COc1cc(F)c2ncc(F)c(CCN3C[C@H](CNCc4ccc5c(n4)NC(=O)CS5)[C@H](O)C3)c2c1` returned an XC50 of 462 nM. Next, `CCCNC(=O)C1Cc2c([nH]c3cc(Br)ccc23)C2(CCN(CCc3ccccc3)CC2)N1` (stereo not given): 972 nM. Regarding `COc1ccc(C(O)CNC(C)CCc2ccccc2)cc1C(F)(F)F` (stereo not given), the XC50 is 70.4 nM. As to `N#Cc1ccc2c(c1)CCN(CCC1CCC(NC(=O)/C=C/c3c[nH]c4c(Br)cccc34)CC1)CC2` (stereo not given), the XC50 was determined as 379 nM. Next, `CN1CCC(N(Cc2ccc(-c3ccc(C(F)(F)F)cc3)cc2)C(=O)Cn2cc(Cc3cnn(C)c3)c(=O)nc2SCc2cccc(F)c2F)CC1`: 933 nM; `COc1cc(OC)nc(-c2cccc(NC(=O)c3ccc4c(=O)n(CCN5CCCCC5)cnc4c3)c2)n1`: 744 nM.

In turn, `Cc1cccc2nc(-c3ccc(-c4cccc(CNCc5ccc(S(C)(=O)=O)cc5)c4)s3)[nH]c12` displayed an XC50 of 334 nM. In turn, `CC(C)[C@H](NC(=O)c1ccc(O)c(-c2cccc(C(F)(F)F)c2)c1)C(=O)NCCN1CCCCC1` registered an XC50 of 836 nM. Next, `C=C[C@H]1CN(CCCCCCC)CC[C@H]1CCN(C)c1ccnc2ccc(OC)cc12`: 446 nM; `O=C(c1cccs1)N(Cc1cccc(-c2ccc(CNC3CCCC3)cc2)c1)C1CCN(Cc2ccccc2)CC1`: 1130 nM. Turning to `CCCC1(NC[C@@H](O)[C@H](Cc2ccccc2)NC(=O)c2cc(NCC)cc(N3CCCCS3(=O)=O)c2)CCCCC1`, the XC50 was 247 nM. Next, `O=C(/C=C/c1ccccc1Cl)Nc1ccc(Br)c(OCCN2CCC(O)(c3ccccc3)CC2)c1`: 483 nM; `O=S(=O)(c1cccc(Br)c1)N1CCCCC(c2ccc(C(F)(F)F)cc2)=N1`: 554 nM; `CC(C)CNC(=O)c1cncc(-c2cccc(CNC3Cc4ccccc4C3)c2)c1`: 786 nM.

Compound `CCN(CCNC(=O)C1CCN(c2cc(-c3cccc(C)c3)ncn2)CC1)Cc1ccccc1` came in with an XC50 of 171 nM.

The compound `Cc1nc(-c2cccc(NC(C)C(=O)Nc3cc(C(F)(F)F)ccc3N3CCOCC3)c2)cs1` (stereo not given) had an XC50 of 241 nM. As for `Cc1cc(C)cc(N2C(N)=NC(N)=NC2(C)C)c1`, the XC50 was found to be 42 nM. Next, `Cc1noc(C)c1-c1cccc(CNCc2cccc(-c3cccc(-c4nc5ccccc5[nH]4)c3)c2)c1`: 377 nM; `Cc1cc(Nc2ncc3c(n2)N(C2CCC2)CC3)ccc1N1CCN(C)CC1`: 1190 nM; `CC=CC1CCNC(C(O)c2ccnc3ccc(OC)cc23)C1` (stereo not given): 1090 nM. The value for `CN1CCN(c2cc(-c3ccncc3)nc(-c3cccnc3)n2)CC1` was 809 nM; that for `Nc1nc(N)c2c(ccc3c2ccn3Cc2ccc3c(c2)OCO3)n1` was 3.2 nM; that for `OCCN1CCN(Cc2ccc(-c3cccc(-c4nc5cc(F)ccc5[nH]4)c3)cc2)CC1` was 608 nM.

Turning to `OC1CCCN(Cc2cccc(-c3ccc(-c4nc5cc(F)ccc5[nH]4)cc3)c2)C1` (stereo not given), the XC50 is 780 nM. The value for `CCC[C@@H]([C@@H](CC(C)C)C(=O)N[C@@H](CCCCNC(=O)OCc1ccccc1)C(=O)Nc1ncccn1)N(O)C=O` was 59.1 nM; that for `CCCOc1ccccc1-c1nc2[nH]c3c(c2c(=O)[nH]1)CCN(C)C3` was 367 nM.

The values are drawn from ChEMBL document CHEMBL1157539, “Thousands of chemical starting points for antimalarial lead identification” (Nature, 2010).
